Data set [1] concerns Pseudomonas aeruginosa NCTC 10490. Put plainly: in vitro minimum inhibitory concentration, Pseudomonas aeruginosa NCTC 10490. The following applies: NCTC10490; in vitro, Pseudomonas aeruginosa NCTC 10490; read-out: minimum inhibitory concentrations (MIC). The format is cell-based.
Data set [2] deals with Escherichia coli ATCC 10536. Put plainly: in vitro minimum inhibitory concentration, Escherichia coli ATCC 10536. It counts as cell-based. The following applies: ATCC10536, read-out: minimum inhibitory concentrations (MIC).
Data set [3] concerns Staphylococcus aureus ATCC 6538-P. Put plainly: stability in acid medium: MIC after exposure to 1 N HCl. It counts as cell-based. The following applies: for MIC: ATCC6538, pH 1.2, Staphylococcus aureus ATCC 6538-P.
Data set [4] deals with Klebsiella pneumoniae ATCC 10031. Put plainly: in vitro minimum inhibitory concentration, Klebsiella pneumoniae ATCC 10031. It counts as cell-based. The following applies: ATCC10031; in vitro, Klebsiella pneumoniae ATCC 10031; read-out: minimum inhibitory concentrations (MIC).
A further data set relates to Salmonella panama. As to the kind of experiment: in vitro minimum inhibitory concentration, Salmonella panama. It counts as cell-based. The following applies: Salmonella enterica; in vitro, Salmonella panama; read-out: minimum inhibitory concentrations (MIC).
In data set [5] the test system is Brucella bronchiseptica ATCC 4617. As to the kind of experiment: microbe, parasite or virus in culture. The following applies: Bordetella bronchiseptica, ATCC4617, read-out: minimum inhibitory concentrations (MIC). It counts as cell-based.
For data set [6], the system named is Staphylococcus epidermidis ATCC 12228. As to the kind of experiment: in vitro minimum inhibitory concentration, Staphylococcus epidermidis ATCC 12228. It counts as cell-based. The following applies: ATCC12228; in vitro, Staphylococcus epidermidis ATCC 12228; read-out: minimum inhibitory concentrations (MIC).
Data set [7] deals with Micrococcus flavus ATCC 10240. Put plainly: in vitro minimum inhibitory concentration, Micrococcus flavus ATCC 10240. The following applies: ATCC10240; in vitro, Micrococcus flavus ATCC 10240; read-out: minimum inhibitory concentrations (MIC). It counts as cell-based.
Data set [8] concerns Corynebacterium xerosis NCTC 9755. As to the kind of experiment: in vitro minimum inhibitory concentration, Corynebacterium xerosis NCTC 9755. It counts as cell-based. The following applies: NCTC9755; in vitro, Corynebacterium xerosis NCTC 9755; read-out: minimum inhibitory concentrations (MIC).
For data set [9], the system named is Staphylococcus aureus ATCC 6538-P. Put plainly: in vitro minimum inhibitory concentration, Staphylococcus aureus ATCC 6538-P. The format is cell-based. The following applies: ATCC6538; in vitro, Staphylococcus aureus ATCC 6538-P; read-out: minimum inhibitory concentrations (MIC).
The subject of another data set is Sarcina lutea ATCC 9341. As to the kind of experiment: in vitro minimum inhibitory concentration, Sarcina lutea ATCC 9341. The format is cell-based. The following applies: Micrococcus luteus, ATCC9341, read-out: minimum inhibitory concentrations (MIC).
The nature of data set [10]: acute i.v. toxicity in albino mice (Litchfield-Wilcoxon). The following applies: mouse, in vivo, iv; acute i.v., albino mice.
The subject of the next data set is albino mice. The data set is described as above. The following applies: mouse, in vivo, iv.
The test system of data set [11] is Streptococcus faecalis ATCC 8043. As to the kind of experiment: in vitro minimum inhibitory concentration, Streptococcus faecalis ATCC 8043. The format is cell-based. The following applies: Enterococcus faecalis, ATCC8043; in vitro, Streptococcus faecalis ATCC 8043; read-out: minimum inhibitory concentrations (MIC).
Data set [12] concerns Shigella flexneri II-1819/C. Put plainly: in vitro minimum inhibitory concentration, Shigella flexneri II-1819/C. It counts as cell-based. The following applies: II1819/C, read-out: minimum inhibitory concentrations (MIC). Here is the method:
In order to examine the antibacterial action, some new compounds were tested in vitro on a series of gram-positive and gram-negative micro-organisms. The results are shown in Table 1 as minimum inhibitory concentrations (MIC) in mcg/ml in comparision with erythromycin A erythromycin A oxime.

The subject of data set [13] is Bacillus subtilis ATCC 6633. Put plainly: in vitro minimum inhibitory concentration, Bacillus subtilis ATCC 6633. It counts as cell-based. The following applies: ATCC6633; in vitro, Bacillus subtilis ATCC 6633; read-out: minimum inhibitory concentrations (MIC).
In data set [14] the test system is Bacillus cereus var. mycoides ATCC 11778. As to the kind of experiment: microbe, parasite or virus in culture. It counts as cell-based. The following applies: ATCC11778, read-out: minimum inhibitory concentrations (MIC).
Setting [15] is: 1 N HCl, pH 1.2, 30 minutes to 6 hours.

As usually defined, the LD50 is the dose at which mortality reaches 50%. A higher LD50 goes with a less toxic substance.

In brackets after ≈: the same amount, converted by molar mass.

Take `CC[C@H]1OC(=O)[C@H](C)[C@@H](O[C@H]2C[C@@](C)(OC)[C@@H](O)[C@H](C)O2)[C@H](C)[C@@H](O[C@@H]2O[C@H](C)C[C@H](N(C)C)[C@H]2O)[C@](C)(O)C[C@@H](C)CN[C@H](C)[C@@H](O)[C@]1(C)O` [Compound I, 11-aza-4-0-cladinosyl-6-0-desosaminyl-15-ethyl-7,13,14-trihydroxy-3,5,7,9,12,14-hexamethyloxacyclopentadecane-2-one]: the MIC in data set [1] came out at 50 µg/mL (≈ 68 µM); in data set [2], 10 µg/mL (≈ 13.6 µM); in [3] (exposure time 0 hours), 0.5 µg/mL (≈ 0.68 µM); in [3] (exposure time 1/2 hour, 1 N HCl) it was 0.5 µg/mL (≈ 0.68 µM); in data set [3] (exposure time 1 hour, 1 N HCl), 0.5 µg/mL (≈ 0.68 µM); in data set [3] (exposure time 2 hours, 1 N HCl), 1 µg/mL (≈ 1.36 µM). Further, the MIC was determined as 1 µg/mL (≈ 1.36 µM) in data set [3] (exposure time 3 hours, 1 N HCl); 1 µg/mL (≈ 1.36 µM) in data set [3] (exposure time 6 hours, 1 N HCl); 10 µg/mL (≈ 13.6 µM) in data set [4]; 50 µg/mL (≈ 68 µM) with Salmonella panama; 1 µg/mL (≈ 1.36 µM) in data set [5]; 0.5 µg/mL (≈ 0.68 µM) in [6]. Also, the MIC worked out at 0.05 µg/mL (≈ 0.068 µM) in data set [7]; 1 µg/mL (≈ 1.36 µM) in [8]; 0.5 µg/mL (≈ 0.68 µM) in data set [9]; 0.05 µg/mL (≈ 0.068 µM) in the data set on Sarcina lutea ATCC 9341; 0.5 µg/mL (≈ 0.68 µM) in data set [11]; 10 µg/mL (≈ 13.6 µM) in data set [12]. Besides, the MIC in data set [13] is 5 µg/mL (≈ 6.8 µM); in [14], 0.5 µg/mL (≈ 0.68 µM). Also, in data set [3] (setting [15]), the “stability in acid medium compared with erythromycin A” value is given as “significantly more stable than erythromycin A”. Also, the “stability in acid medium compared with erythromycin A oxime” value in data set [3] (setting [15]) is given as “within the range of that of the starting antibioticum erythromycin A oxime”. In [10], this compound gave a 50% lethal dose (LD50) of 110 mg/kg. In the data set with albino mice, the “acute i.v. toxicity compared with erythromycin A oxime” value is recorded as “less toxic that the starting erythromycin A oxime”.

(Values after US4328334A, “11-Aza-10-deoxo-10-dihydroerythromycin A and derivatives thereof as well as a process for their preparation” (PLIVA Pharmaceutical and Chemical Works, priority 1979, dated 1982).)
